Biological target: SGK1 (human) (UniProt O00141)
Experiment: Flashplate

Sequence of SGK1 (human) (O00141 whole entry, looked up): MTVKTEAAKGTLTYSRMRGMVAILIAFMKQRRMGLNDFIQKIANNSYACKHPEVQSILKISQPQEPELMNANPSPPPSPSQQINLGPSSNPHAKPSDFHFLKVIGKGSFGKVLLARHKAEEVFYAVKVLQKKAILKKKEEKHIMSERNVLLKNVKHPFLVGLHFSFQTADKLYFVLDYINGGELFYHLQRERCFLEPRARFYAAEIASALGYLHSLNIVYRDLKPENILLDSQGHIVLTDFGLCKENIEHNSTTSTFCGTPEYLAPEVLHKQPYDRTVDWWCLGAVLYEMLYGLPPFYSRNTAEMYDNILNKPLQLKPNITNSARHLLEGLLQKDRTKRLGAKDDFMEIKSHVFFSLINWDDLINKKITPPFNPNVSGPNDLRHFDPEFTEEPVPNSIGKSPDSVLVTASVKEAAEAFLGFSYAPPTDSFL

| Ki [µM] | SMILES |
| --- | --- |
| > 10 | COc1cc(C=O)c(Cl)cc1NC(=O)Nc1cnc(C#N)cn1 |
| > 10 | COc1cc(C)c(Cl)cc1NC(=O)Nc1cnc(C#N)cn1 |
| > 10 | CC(C)c1nnc2ccc(-c3c(-c4ccc(F)cc4F)nc4n3CCC4)nn12 |
| > 10 | O=C1NCCc2[nH]c(-c3ccnc(-c4cnc5ccccc5c4)c3)cc21 |
| 0.501 | NCCCn1cc(-c2cc(-c3cc4ccccc4s3)c3[nH]ncc3c2)c2nc(N)ncc21 |
| > 10 | Clc1ccc(CNc2ccc3nnc(-c4ccccc4)n3n2)cc1 |
| > 10 | CCOc1nc(NC(=O)Cc2cc(OC)c(S(C)(=O)=O)cc2OC)cc(N)c1C#N |
| > 10 | CCN(CC)C(=O)Nc1ccc2nc(-c3ccco3)c(-c3ccco3)nc2c1 |
| > 10 | O=c1[nH]c2sc3c(c2c2nc(-c4ccncc4)nn12)CCCC3 |
| 1.26 | O=C(Nc1cnccn1)Nc1ccnc2ccccc12 |
| > 10 | CC(C)(C)NC(=O)c1ccc2nc3[nH]c4ccccc4c3nc2c1 |
| 2.51 | c1ccc(CNc2nc3ccc(-c4ccncc4)cc3s2)cc1 |
| > 10 | CC1=NN(c2ccccc2)C(=O)/C1=C/c1c(C)c(C#N)c2nc3ccccc3n2c1O |
| > 10 | CCN1CCN(CCCC(=O)Nc2n[nH]c3nnc(-c4cccc(F)c4F)cc23)CC1 |
| > 10 | CC(C)(CO)CNc1nccc(-c2c(-c3ccc(F)cc3)nc3cnccn23)n1 |
| > 10 | CN(C(=O)C1CCCCC1)c1ccc2c(c1)nc(NC(=O)c1ccc(C#N)cc1)n2C |
| 3.16 | Cc1cccc(NC(=O)Nc2ccc(-c3csc4c(C#CC(C)(C)N)cnc(N)c34)cc2)c1 |
| > 10 | O=c1[nH]c2sc3c(c2c2nc(-c4ccccc4)nn12)CCCC3 |
| > 10 | O=S(=O)(O)c1ccc(NCc2ccc3c(c2)OCO3)c2c(O)cccc12 |
| 0.631 | Nc1ncc(-c2ccncc2)c2scc(-c3ccc(NC(=O)Nc4cc(C(F)(F)F)ccc4F)cc3)c12 |
| > 10 | Cc1cccc(NC(=O)Nc2ccc(-c3csc4ncnc(N)c34)cc2)c1 |
| > 10 | CC(C)c1nnc2ccc(-c3c(-c4ccc(F)cc4F)nc4occn34)nn12 |

| Ki [µM] | SMILES |
| --- | --- |
| > 10 | CC(C)(CO)c1nnc2ccc(-c3c(-c4ccc(F)cc4F)nc4occn34)nn12 |
| 3.98 | Nc1ncnc2scc(-c3ccc(NC(=O)Nc4ccccc4)cc3)c12 |
| 0.631 | COc1cccc([C@@H](C)NC(=O)c2ccc(-c3ccncn3)cc2)c1 |
| 1.58 | Cc1cc(Nc2ncc(F)c(N[C@H]3[C@@H](C(N)=O)[C@@H]4C=C[C@H]3C4)n2)ccc1N1CCN(C)CC1 |
| > 10 | Cc1ccc(NC(=O)Nc2ccc(-c3csc4c(-c5cnn(C)c5)cnc(N)c34)cc2)cc1 |
| > 10 | CCCC(=O)Nc1n[nH]c2nnc(-c3cccc(F)c3F)cc12 |
| 0.794 | Cc1cccc(NC(=O)Cc2ccc(-c3cccc4[nH]nc(N)c34)cc2)c1 |
| 3.98 | NS(=O)(=O)c1cccc(Nc2ncc3ccn(Cc4ccccc4)c3n2)c1 |
| > 10 | Cc1csc(NC(=O)c2sc3nc(-c4ccncc4)ccc3c2N)n1 |
| > 10 | COc1cc(-c2ccc3c(c2)Nc2ccc(C(=O)NCc4cccc(F)c4)cc2NC3=O)ccc1O |
| 3.16 | COc1ccc(-c2cnc3c(Br)cnn3c2)cc1 |
| > 10 | Nc1nccn2c(C3CC(CN4CCCC4)C3)nc(-c3cccc(OCc4ccccc4)c3)c12 (stereo unspecified) |
| > 10 | C[C@@H](N)C1CCC(C(=O)Nc2ccnc3[nH]ccc23)CC1 (stereo partly specified) |
| > 10 | CC(C)(O)c1nnc2ccc(-c3c(-c4ccc(F)cc4F)nc4n3CCC4)nn12 |
| > 10 | COc1ccc(CNC(=O)Nc2ncc([N+](=O)[O-])s2)cc1 |
| > 10 | Nc1ncnc2c1c(-c1cccc(OCc3ccccc3)c1)cn2[C@H]1C[C@H](CN2CCCC2)C1 |
| 5.01 | COc1cc(/C=C(\C#N)c2nc3cc(C)ccc3[nH]2)c(Br)cc1O |
| 5.01 | COc1cc(/C=C2\S/C(=N\c3ccccc3)NC2=O)ccc1O |
| > 10 | Cc1cc2cc(-c3csc4c(-c5cccc(S(C)(=O)=O)c5)cnc(N)c34)ccc2[nH]1 |
| > 10 | O=C(Nc1cnccn1)Nc1ccnc2c(F)cccc12 |
| 3.98 | CCCOc1cccc([C@@H](C)NC(=O)c2ccc(-c3ccncc3)cc2)c1 |
| > 10 | COc1cc(-c2ccc3[nH]nc(C(=O)Nc4ccccc4)c3c2)ccc1O |

| Ki [µM] | SMILES |
| --- | --- |
| > 10 | COc1cncc(/C=C/c2ccncc2)c1 |
| > 10 | Cc1n[nH]c2c1C(c1ccccc1I)C(C#N)=C(N)O2 (stereo unspecified) |
| > 10 | CC(=O)N(c1ccncc1)c1c(N[C@H](C)C(C)(C)C)c(=O)c1=O |
| > 7.94 | Cc1cccc(NC(=O)Nc2ccc(-c3cncc4c3c(N)nn4C)cc2)c1 |
| > 10 | NNc1cc(N2CCOCC2)nc(OCCc2ccccn2)n1 |
| > 10 | CC(=O)N1CCC(Nc2nccc(-c3c(-c4ccc(F)cc4)nc4occn34)n2)CC1 |
| > 10 | CC(C)Cn1c(N)nc2c(F)cc(-c3c(-c4ccc(F)cc4)nc4sccn34)cc21 |
| > 10 | Cc1ccc(NC(=O)Nc2ccc(NC(=O)c3csc4ncnc(N)c34)cc2)cc1 |
| 0.126 | NC(=O)c1cccc(-c2cnc3[nH]cc(-c4ccccc4)c3c2)c1 |
| 1.58 | O=C(Nc1n[nH]c2nc3ccccc3cc12)c1ccncc1 |
| 3.16 | Cc1ccc(C(=O)Nc2c(C(N)=O)sc3ccc(Cl)c(Cl)c23)cc1 |
| 2 | O=c1c(NCc2ccc(Cl)cc2)c(Nc2ccncc2)c1=O |
| > 10 | CCn1c2cc(Cl)c(F)cc2c(=O)c2c(=O)o[nH]c21 |
| 1 | Nc1n[nH]c2cccc(-c3ccc(NC(=O)Nc4ccccc4)cc3)c12 |
| > 10 | CN(C)C(=O)Nc1ccc2nc(-c3ccco3)c(-c3ccco3)nc2c1 |
| 2 | Cn1cc(-c2cnc(N)c3c(-c4ccc(NC(=O)Nc5cccc(F)c5)cc4)csc23)cn1 |
| > 10 | CS(=O)(=O)Nc1cc2c(cc1Cl)NC(=O)Nc1cnc(C#N)c(n1)OCCCCCO2 |
| 7.94 | CN1CCC(C(=O)n2nc(N)c3cc(-c4cn(Cc5ccccc5)nn4)ccc32)CC1 |
| > 10 | COc1ccc(/C=C2/S/C(=N/c3ccccc3)NC2=O)cc1OC |
| > 10 | CCOc1ccc(NC(=O)Nc2ccc(-c3csc4c(-c5cnn(C)c5)cnc(N)c34)cc2)cc1 |
| 5.01 | O=C1NCCc2[nH]c(-c3ccncc3)cc21 |
| 5.01 | O=C1Nc2ccccc2Nc2nnc(Cl)cc21 |

| Ki [µM] | SMILES |
| --- | --- |
| > 10 | Cc1ccccc1-c1c(C(=O)O)n(CCCOc2cccc3ccccc23)c2ccccc12 |
| > 10 | CC[C@H](CO)Nc1nc(NCc2ccccc2)c2ncn(C(C)C)c2n1 |
| > 10 | Oc1cccc(Nc2ncnc3scc(Cl)c23)c1 |
| > 10 | Nc1n[nH]c2cc(-c3ccc(NC(=O)Nc4cccc(C(F)(F)F)c4)cc3)ccc12 |
| 2 | O=c1c(NCc2cccc(C(F)(F)F)c2)c(Nc2ccncc2)c1=O |
| 3.98 | Cc1ccc(CNc2c(Nc3ccncc3)c(=O)c2=O)cc1 |
| 0.501 | O=C(NCc1ccc(Cl)c(Cl)c1)Nc1ccc2[nH]ncc2c1 |
| > 10 | O=C(CO)N1CCC(c2[nH]nc(-c3ccc(Cl)cc3F)c2-c2ccncn2)CC1 |
| 0.316 | Oc1cc(O)cc(/C=C/c2ccc(O)c(O)c2)c1 |
| > 10 | NC(=O)c1cccc2[nH]c(-c3ccc(C4CCCNC4)cc3F)nc12 (stereo unspecified) |
| > 10 | CNCc1ccc(-c2[nH]c3cc(F)cc4c3c2CCNC4=O)cc1 |
| 0.316 | CCn1c(C)c(-c2ccnc(Nc3cccc(OC)c3)n2)sc1=O |
| > 10 | O=c1[nH]c2cc(-c3ccccc3)cnc2[nH]1 |
| 2 | Cc1cc(C)c(/C=C2\C(=O)Nc3ccccc32)[nH]1 |
| 0.631 | CS(=O)(=O)Nc1ccc(-c2ccc3[nH]nc(N)c3c2)cc1 |
| > 10 | CC(C)n1nnc2ccc(-c3c(-c4ccc(F)cc4F)nc4occn34)cc21 |
| > 10 | CCCCNC1=NS(=O)N=C1Nc1ccc(F)cc1 (stereo unspecified) |
| > 10 | N#Cc1ncc2nc1OCCCCCOc1cc(OCC(O)CO)c(Cl)cc1NC(=O)N2 (stereo unspecified) |
| > 10 | N#Cc1ncc2nc1OCCCCCOc1cc(OCCCO)c(Cl)cc1NC(=O)N2 |
| > 10 | COc1cc(N2CCC(N3CCN(C)CC3)CC2)ccc1Nc1ncc(Cl)c(Nc2ccccc2S(=O)(=O)C(C)C)n1 |
| > 10 | Cc1nnc(-c2cc3c(Oc4ccc(C(F)(F)F)cc4)cncc3s2)o1 |
| > 10 | Cc1nccn2c(-c3ccnc(NCC4(O)CC4)n3)c(-c3ccc(F)cc3F)nc12 |

| Ki [µM] | SMILES |
| --- | --- |
| > 10 | CCOc1nc(C(=O)NCc2ccccc2S(N)(=O)=O)cc(N)c1Cl |
| > 10 | C[C@H](Nc1c(Nc2ccncc2)c(=O)c1=O)c1ccccc1 |
| 0.02 | COc1cccc([C@@H](C)NC(=O)N2CC=C(c3c[nH]c4ncccc34)CC2)c1 |
| > 7.94 | Cc1cccc(Nc2nc(N[C@@H]3CCCC[C@@H]3N)cnc2C(N)=O)c1 |
| > 10 | Cc1c(-c2cccc(OCc3ccccc3)c2)c2c(N)ncnc2n1[C@H]1CC[C@@H](N2CCCC2)CC1 |
| > 10 | CC(C)(CO)c1nnc2ccc(-c3c(-c4ccc(F)cc4F)nc4n3CCC4)nn12 |
| > 10 | COc1cccc2c1Nc1cc(Nc3ccncc3)ccc1C(=O)N2 |
| > 10 | Fc1cnc(Nc2ccccc2)nc1Nc1ccccc1 |
| 0.0631 | O=C(Nc1n[nH]c2ccc(-c3cn(Cc4ccccc4)nn3)cc12)c1ccccc1 |
| > 10 | Cc1cc2nnc(SCc3cn4ccccc4n3)n2c2ccccc12 |
| > 10 | Cc1cccc(NC(=O)Nc2ccc(-c3csc4ccnc(N)c34)cc2)c1 |
| 3.16 | Cc1cc(C)c2c(n1)sc1c(N)ncnc12 |
| 1.58 | COCCN(C)C(=O)c1c(-c2ccc3[nH]ncc3c2)nnn1Cc1ccccc1 |
| > 10 | CCOc1nc(C(=O)NCc2cccnc2)cc(N)c1C#N |
| 0.158 | Cc1n[nH]c2ccc(-c3cncc(OC[C@@H](N)Cc4cccc(Cl)c4)c3)cc12 |
| 0.631 | COC(=O)c1c(-c2ccc(NC(=O)Nc3ccccc3)cc2)c2c(N)ncnn2c1C |
| 0.501 | COc1cccc([C@@H](C)NC(=O)c2cnc(-c3ccncc3)s2)c1 |
| 6.31 | Cc1cccc(NC(=O)Nc2ccc(-c3csc4c(C#CCN(C)C)cnc(N)c34)cc2)c1 |
| > 10 | Nc1nonc1-n1nnc(C(=O)N/N=C/c2cccs2)c1-c1ccccc1 |
| > 10 | CCCOn1c2ccc(Cl)cc2c(=O)c2c(C)nn(C)c21 |
| > 10 | N[C@@H](COCc1ccccc1)COc1cncc(/C=C/c2ccncc2)c1 |
| 3.16 | N[C@@H](Cc1c[nH]c2ccccc12)C(=O)Nc1cncc(/C=C/c2ccncc2)c1 |

| SMILES | Ki [µM] |
| --- | --- |
| N[C@H](COc1cncc(/C=C/c2ccncc2)c1)Cc1c[nH]c2ccccc12 | 7.94 |
